Results from patent US20130030012A1, “COMPOUNDS” (Glaxo Group Limited, priority 2011, published 2013).

What was measured:
[1] = tested on: proinflammatory (M1) and anti-inflammatory (M2) markers in splenic and CNS infiltrating macrophages; test: Ex vivo analysis of M1 and M2 markers in macrophages of EAE rats by realtime PCR; design: species or system rat; details: spleen harvested day 13 post MBP-immunization
Procedure: Ex vivo analysis of proinflammatory (M1) and anti-inflammatory (M2) markers in control and compound treated EAE rats. Splenic macrophages were harvested at day 13 post MBP-immunization and assayed for expression of a variety of markers by realtime PCR. CNS infiltrating cells were harvested and macrophages were analyzed for expression of M1 and M2 markers by realtime PCR.

[2] = tested on: experimental autoimmune encephalomyelitis (EAE) rats; test: Rat experimental autoimmune encephalomyelitis (EAE) model, preventive treatment; assay type: in vivo
Procedure: A further study was carried out to study the impact of Lp-PLA2 inhibitors on modulating M1/M2 imbalance. In this study, rats were induced to develop experimental autoimmune encephalomyelitis (EAE) by immunization with myelin basic protein (MBP) antigen and treated with a known Lp-PLA2 inhibitor: 5-((9-Methoxy-4-oxo-6,7-dihydro-4H-pyrimido[6,1-a]isoquinolin-2-yl)oxy)-2-(3-(trifluoromethyl)phenoxy)benzonitrile (See PCT application no. PCT/CN2011/001597). In this preventive treatment model, the compound was administered at day 0 (day of immunization) and continued to administer until day 22. The study lasted for 25 days. Rats were subsequently monitored for symptoms of EAE. Rats were immunized with MBP to develop EAE and symptoms were monitored daily. Plasma Lp-PLA2 activity, OxLDL, and LysoPC concentration were determined at different time points through the course of EAE.

Lp-PLA2 in human plasma = target: T1, Lp-PLA2 in human plasma (Homo sapiens, UniProt Q13093); test: Lp-PLA2 human plasma assay (Thio-PAF assay); assay type: biochemical; details: pooled human plasma; read-out: pIC50 values in the thio-PAF assay (converted)
T1 construct: from tissue; host or cells: pooled human plasma
T1 sequence (Q13093 22-441): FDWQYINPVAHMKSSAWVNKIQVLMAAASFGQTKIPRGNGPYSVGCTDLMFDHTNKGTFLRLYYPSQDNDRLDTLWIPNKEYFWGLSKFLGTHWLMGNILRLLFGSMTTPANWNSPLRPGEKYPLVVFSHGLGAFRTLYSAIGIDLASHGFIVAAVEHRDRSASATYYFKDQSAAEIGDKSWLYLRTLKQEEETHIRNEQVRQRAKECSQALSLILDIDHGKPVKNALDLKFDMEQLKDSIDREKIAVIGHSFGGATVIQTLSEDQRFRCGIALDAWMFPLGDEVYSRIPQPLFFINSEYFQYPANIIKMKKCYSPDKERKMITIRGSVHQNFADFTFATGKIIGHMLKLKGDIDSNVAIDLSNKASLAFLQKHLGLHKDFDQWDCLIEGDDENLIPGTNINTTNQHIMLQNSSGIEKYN
Method in brief: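 Pooled human plasma preincubated 30 min with compounds, then given substrate mix of 2.5 mM 2-thio-PAF, […] and 3.2 mM NEM (concentrations in substrate solution) in pH 7.4 HEPES/NaCl/CHAPS buffer. Quenched with TFA after 2 min; CPM-thiol fluorescence read at ex 380/em 485 to give pIC50.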

[3] = target: T2, recombinant human Lp-PLA2 (Homo sapiens, UniProt Q13093); test: Recombinant human Lp-PLA2 assay (rhLp-PLA2, PED6 assay); assay type: biochemical; details: upper limit for pIC50 in this assay is 9.3; read-out: pIC50 values in the PED6 assay (converted)
T2 sequence (Q13093 22-441): T1 sequence (Q13093 22-441)
Method in brief: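 Enzyme at 4 nM (or 110 pM) in 50 mM HEPES pH 7.4, 150 mM NaCl, 1 mM CHAPS, preincubated with compound 30 min. PED6 substrate ([…] 5 μM, as printed) then added and reaction run 20 min at room temperature, protected from light. Fluorescence read at ex 480/em 540; pIC50 from curve fitting.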

IC50 (Lp-PLA2 in human plasma)	IC50 [3]	SMILES	also measured
		COc1ccc2c(c1)CCn1c-2cc(Oc2ccc(Oc3cccc(C(F)(F)F)c3)c(C#N)c2)nc1=O [5-((9-Methoxy-4-oxo-6,7-dihydro-4H-pyrimido[6,1-a]isoquinolin-2-yl)oxy)-2-(3-(trifluoromethyl)phenoxy)benzonitrile]	M1 markers expression [1]: decrease in M1 markers; M2 markers expression [1]: increase in M2 markers; LysoPC levels ([2]; rat EAE plasma): decreased; plasma Lp-PLA2 activity ([2]; rat EAE plasma): decreased Lp-PLA2 activity; clinical disease ([2]; rat EAE, MBP immunization, compound administered day 0 to day 22): reduction in clinical disease
≤ 0.1 µM	≤ 0.001 µM	O=c1nc(OCc2ccc(Oc3ccc(Cl)c(C(F)(F)F)c3)c(F)c2)cc2n1CCCN2 [Example 97, 8-((4-(4-chloro-3-(trifluoromethyl)phenoxy)-3-fluorobenzyl)oxy)-3,4-dihydro-1H-pyrimido[1,6-a]pyrimidin-6(2H)-one]	
≤ 0.1 µM	≤ 0.001 µM	CN1CCCn2c1cc(OCc1ccc(Oc3cc(F)cc(C#N)c3)c(F)c1)nc2=O [Example 98, 3-fluoro-5-(2-fluoro-4-(((1-methyl-6-oxo-2,3,4,6-tetrahydro-1H-pyrimido[1,6-a]pyrimidin-8-yl)oxy)methyl)phenoxy)benzonitrile]	
≤ 0.1 µM	≤ 0.01 µM	O=c1nc(OCc2ccc(F)c(F)c2)cc2n1CCCN2 [Example 99, 8-((3,4-difluorobenzyl)oxy)-3,4-dihydro-1H-pyrimido[1,6-a]pyrimidin-6(2H)-one]	
≤ 0.1 µM	≤ 0.001 µM	O=c1nc(OCc2ccc(Oc3ccc(F)c(C(F)(F)F)c3)cc2)cc2n1CCCN2 [Example 100, 8-((4-(4-fluoro-3-(trifluoromethyl)phenoxy)benzyl)oxy)-3,4-dihydro-1H-pyrimido[1,6-a]pyrimidin-6(2H)-one]	
≤ 0.1 µM	≤ 0.001 µM	O=c1nc(OCc2ccc(Oc3cccc(C(F)(F)F)c3)c(F)c2)cc2n1CCCN2 [Example 101, 8-((3-fluoro-4-(3-(trifluoromethyl)phenoxy)benzyl)oxy)-3,4-dihydro-1H-pyrimido[1,6-a]pyrimidin-6(2H)-one]	
≤ 1 µM	≤ 0.001 µM	CN1CCCn2c1cc(OCCc1ccc(Oc3ccc(Cl)c(F)c3)c(F)c1)nc2=O [Example 102, 8-(4-(4-chloro-3-fluorophenoxy)-3-fluorophenethoxy)-1-methyl-3,4-dihydro-1H-pyrimido[1,6-a]pyrimidin-6(2H)-one]	
≤ 1 µM	≤ 0.01 µM	CN1CCCn2c1cc(OCCc1ccc(Oc3ccc(Cl)c(F)c3)cc1)nc2=O [Example 103, 8-(4-(4-chloro-3-fluorophenoxy)phenethoxy)-1-methyl-3,4-dihydro-1H-pyrimido[1,6-a]pyrimidin-6(2H)-one]	
≤ 0.1 µM	≤ 0.001 µM	N#Cc1ccc(Oc2ccc(COc3cc4n(c(=O)n3)CCCN4)cc2C#N)cc1F [Example 104, 4-(2-cyano-4-(((6-oxo-2,3,4,6-tetrahydro-1H-pyrimido[1,6-a]pyrimidin-8-yl)oxy)methyl)phenoxy)-2-fluorobenzonitrile]	
≤ 0.1 µM	≤ 0.001 µM	CN1CCCn2c1cc(OCCc1ccc(Oc3cccc(C(F)(F)F)c3)c(F)c1)nc2=O [Example 105, 8-(3-fluoro-4-(3-(trifluoromethyl)phenoxy)phenethoxy)-1-methyl-3,4-dihydro-1H-pyrimido[1,6-a]pyrimidin-6(2H)-one]	
≤ 0.1 µM	≤ 0.01 µM	N#Cc1ccc(Oc2ccc(COc3cc4n(c(=O)n3)CCCN4)cc2C#N)cc1Cl [Example 106, 2-chloro-4-(2-cyano-4-(((6-oxo-2,3,4,6-tetrahydro-1H-pyrimido[1,6-a]pyrimidin-8-yl)oxy)methyl)phenoxy)benzonitrile]	
≤ 0.1 µM	≤ 0.001 µM	N#Cc1cc(COc2cc3n(c(=O)n2)CCCN3)ccc1Oc1ccc(Cl)c(C(F)(F)F)c1 [Example 107, 2-(4-chloro-3-(trifluoromethyl)phenoxy)-5-(((6-oxo-2,3,4,6-tetrahydro-1H-pyrimido[1,6-a]pyrimidin-8-yl)oxy)methyl)benzonitrile]	
≤ 0.1 µM	≤ 0.01 µM	O=c1nc(OCc2cc(F)c(F)c(F)c2)cc2n1CCCN2 [Example 113, 8-(3,4,5-trifluorobenzyloxy)-3,4-dihydro-1H-pyrimido[1,6-a]pyrimidin-6(2H)-one]	
≤ 0.1 µM	≤ 0.001 µM	O=c1nc(OCc2cc(F)c(Oc3ccc(F)cc3)c(F)c2)cc2n1CCCN2 [Example 114, 8-((3,5-difluoro-4-(4-fluorophenoxy)benzyl)oxy)-3,4-dihydro-1H-pyrimido[1,6-a]pyrimidin-6(2H)-one]	
≤ 0.1 µM	≤ 0.001 µM	O=c1nc(OCc2cc(F)c(Oc3cccc(F)c3)c(F)c2)cc2n1CCCN2 [Example 115, 8-((3,5-difluoro-4-(3-fluorophenoxy)benzyl)oxy)-3,4-dihydro-1H-pyrimido[1,6-a]pyrimidin-6(2H)-one]	
≤ 0.1 µM	≤ 0.001 µM	O=c1nc(OCc2ccc(Oc3cccc(F)c3)c(F)c2)cc2n1CCCN2 [Example 116, 8-((3-fluoro-4-(3-fluorophenoxy)benzyl)oxy)-3,4-dihydro-1H-pyrimido[1,6-a]pyrimidin-6(2H)-one]	
≤ 0.1 µM	≤ 0.001 µM	O=c1nc(OCc2ccc(Oc3ccc(F)c(F)c3)c(F)c2)cc2n1CCCN2 [Example 117, 8-((4-(3,4-difluorophenoxy)-3-fluorobenzyl)oxy)-3,4-dihydro-1H-pyrimido[1,6-a]pyrimidin-6(2H)-one]	
≤ 0.1 µM	≤ 0.001 µM	O=c1nc(OCc2ccc(Oc3ccc(F)cc3)c(F)c2)cc2n1CCCN2 [Example 118, 8-((3-fluoro-4-(4-fluorophenoxy)benzyl)oxy)-3,4-dihydro-1H-pyrimido[1,6-a]pyrimidin-6(2H)-one]	
≤ 0.1 µM	≤ 0.001 µM	O=c1nc(OCc2ccc(Oc3ccc(F)c(F)c3)cc2)cc2n1CCCN2 [Example 119, 8-((4-(3,4-difluorophenoxy)benzyl)oxy)-3,4-dihydro-1H-pyrimido[1,6-a]pyrimidin-6(2H)-one]	
